Here are results for one compound from patent US20190293657A1, “PEPTIDE, FLUORESCENT PROBE COMPRISING THE SAME, AND PREPARATION METHOD THEREOF” (Singulprobe Nanjing Biotechnology Co., Ltd, priority 2017, published 2019).

This assay relates to lysosome (U2OS cells). The assay can be described thus: Structural illumination microscopy (N-SIM) super-resolution imaging of lysosomes. Format: cell-based. Conditions: FIG. 8. From the text: Super-resolution imaging by structural illumination microscopy: super-resolution microscope N-SIM (Nikon, Japan) was employed. The maximum excitation wavelength of Alexa Fluor 647 was 650 nm and the maximum emission wavelength was 665 nm; the maximum excitation wavelength of LysoTracker Red was 577 nm and the maximum emission wavelength of LysoTracker Red was 590 nm; the maximum excitation wavelength of Atto 565 was 563 nm and the maximum emission wavelength of Atto 565 was 592 nm; the maximum excitation wavelength of Atto 488 was 501 nm and the maximum emission wavelength was 523 nm. A sample was photographed using a 2D-SIM mode, one SIM result was calculated from 9 original images (three angles, three phases), and the exposure time of each original image was 30 ms. Considering quick movement ability of a lysosome in living cells, single-color imaging interval time was set as 1 s so as to continuously photograph cells at above 300 frames. After the capturing was completed, the average time interval among various SIM images was about 1.15 s. […]
Based on a time-lapsed SIM imaging, take the center of the lysosome as a reference, the coordinates of lysosomes were recorded using ImageJ software, and trace charts of 101 lysosomes in four U2OS cells on the confocal surface were drawn using MATLAB (FIGS. 6A-6H). […]

The structures appear in SMILES notation.

As to `CN(C)CCNC(=O)CCc1ccc2n1[B-](F)(F)[N+]1=C(c3ccc[nH]3)C=CC1=C2` [LysoTracker Red], the “background in structural illumination super-resolution imaging” value is on record as “uneven background of LysoTracker Red was very obvious”.
